ChEMBL document CHEMBL3046647, “Khayasin and 2S-methylbutanoylproceranolide: Promising candidate insecticides for the control of the coconut leaf beetle, Brontispa longissima” (2011)
Values after ≈ are worked out from the molar mass of the structure shown.

What was measured:
Assay type in all cases: functional
Brontispa longissima [1] = experiment: Insecticidal activity against Brontispa longissima fifth-instar larvae fed on compound pre-treated Cocos nucifera L. leaves assessed as insect mortality measured 48 hr after compound treatment; conditions: in Cocos nucifera
Brontispa longissima [2] = experiment: Insecticidal activity against Brontispa longissima fifth-instar larvae fed on compound pre-treated Cocos nucifera L. leaves assessed as insect mortality at 50 ug/ml measured 72 hr after compound treatment; conditions: in Cocos nucifera
Brontispa longissima [3] = experiment: Insecticidal activity against Brontispa longissima second-instar larvae fed on compound pre-treated Cocos nucifera L. leaves assessed as insect mortality at 50 ug/ml measured 24 hr after compound treatment; conditions: in Cocos nucifera
Brontispa longissima [4] = experiment: Insecticidal activity against Brontispa longissima fifth-instar larvae fed on compound pre-treated Cocos nucifera L. leaves assessed as insect mortality at 25 ug/ml measured 12 hr after compound treatment; conditions: in Cocos nucifera
Brontispa longissima [5] = experiment: Insecticidal activity against Brontispa longissima third-instar larvae fed on compound pre-treated Cocos nucifera L. leaves assessed as insect mortality at 50 ug/ml measured 48 hr after compound treatment; conditions: in Cocos nucifera
Spodoptera litura [6] = experiment: Antifeedant activity against Spodoptera litura third-instar larvae fed on compound pre-treated castor-oil plant leaves assessed as antifeedant rate at 1 mg/ml after 48 hr
Brontispa longissima [7] = experiment: Insecticidal activity against Brontispa longissima fourth-instar larvae fed on compound pre-treated Cocos nucifera L. leaves assessed as insect mortality at 50 ug/ml measured 48 hr after compound treatment; conditions: in Cocos nucifera
Brontispa longissima [8] = experiment: Insecticidal activity against Brontispa longissima fifth-instar larvae fed on compound pre-treated Cocos nucifera L. leaves assessed as insect mortality at 25 ug/ml measured 48 hr after compound treatment; conditions: in Cocos nucifera
Brontispa longissima [9] = experiment: Insecticidal activity against Brontispa longissima third-instar larvae fed on compound pre-treated Cocos nucifera L. leaves assessed as insect mortality at 50 ug/ml measured 72 hr after compound treatment; conditions: in Cocos nucifera
Brontispa longissima [10] = experiment: Insecticidal activity against Brontispa longissima fourth-instar larvae fed on compound pre-treated Cocos nucifera L. leaves assessed as insect mortality at 50 ug/ml measured 12 hr after compound treatment; conditions: in Cocos nucifera
Brontispa longissima [11] = experiment: Insecticidal activity against Brontispa longissima second-instar larvae fed on compound pre-treated Cocos nucifera L. leaves assessed as insect mortality at 50 ug/ml measured 12 hr after compound treatment; conditions: in Cocos nucifera
Spodoptera litura [12] = experiment: Antifeedant activity against Spodoptera litura third-instar larvae fed on compound pre-treated castor-oil plant leaves assessed as antifeedant rate at 1 mg/ml after 24 hr
Brontispa longissima [13] = experiment: Insecticidal activity against Brontispa longissima fourth-instar larvae fed on compound pre-treated Cocos nucifera L. leaves assessed as insect mortality at 50 ug/ml measured 72 hr after compound treatment; conditions: in Cocos nucifera
Spodoptera litura [14] = experiment: Insecticidal activity against Spodoptera litura third-instar larvae fed on compound pre-treated Ricinus communis L. leaves assessed as insect mortality at 0.5 mg/ml measured 12 days after compound treatment; conditions: in Ricinus communis
Spodoptera litura [15] = experiment: Antifeedant activity against Spodoptera litura third-instar larvae fed on compound pre-treated castor-oil plant leaves assessed as antifeedant rate at 0.5 mg/ml after 24 hr
Spodoptera litura [16] = experiment: Insecticidal activity against Spodoptera litura third-instar larvae fed on compound pre-treated Ricinus communis L. leaves assessed as insect mortality at 1 mg/ml measured 12 days after compound treatment; conditions: in Ricinus communis
Brontispa longissima [17] = experiment: Insecticidal activity against Brontispa longissima second-instar larvae fed on compound pre-treated Cocos nucifera L. leaves assessed as insect mortality at 50 ug/ml measured 48 hr after compound treatment; conditions: in Cocos nucifera
Brontispa longissima [18] = experiment: Insecticidal activity against Brontispa longissima fifth-instar larvae fed on compound pre-treated Cocos nucifera L. leaves assessed as insect mortality at 50 ug/ml measured 24 hr after compound treatment; conditions: in Cocos nucifera
Brontispa longissima [19] = experiment: Insecticidal activity against Brontispa longissima fourth-instar larvae fed on compound pre-treated Cocos nucifera L. leaves assessed as insect mortality at 50 ug/ml measured 24 hr after compound treatment; conditions: in Cocos nucifera
Brontispa longissima [20] = experiment: Insecticidal activity against Brontispa longissima second-instar larvae fed on compound pre-treated Cocos nucifera L. leaves assessed as insect mortality at 50 ug/ml measured 72 hr after compound treatment; conditions: in Cocos nucifera
Brontispa longissima [21] = experiment: Insecticidal activity against Brontispa longissima fifth-instar larvae fed on compound pre-treated Cocos nucifera L. leaves assessed as insect mortality at 25 ug/ml measured 72 hr after compound treatment; conditions: in Cocos nucifera
Brontispa longissima [22] = experiment: Insecticidal activity against Brontispa longissima fifth-instar larvae fed on compound pre-treated Cocos nucifera L. leaves assessed as insect mortality at 50 ug/ml measured 48 hr after compound treatment; conditions: in Cocos nucifera
Brontispa longissima [23] = experiment: Insecticidal activity against Brontispa longissima fifth-instar larvae fed on compound pre-treated Cocos nucifera L. leaves assessed as insect mortality at 50 ug/ml measured 12 hr after compound treatment; conditions: in Cocos nucifera
Brontispa longissima [24] = experiment: Insecticidal activity against Brontispa longissima fifth-instar larvae fed on compound pre-treated Cocos nucifera L. leaves assessed as insect mortality at 25 ug/ml measured 24 hr after compound treatment; conditions: in Cocos nucifera
Brontispa longissima [25] = experiment: Insecticidal activity against Brontispa longissima fifth-instar larvae fed on compound pre-treated Cocos nucifera L. leaves assessed as insect mortality measured 24 hr after compound treatment; conditions: in Cocos nucifera
Spodoptera litura [26] = experiment: Antifeedant activity against Spodoptera litura third-instar larvae fed on compound pre-treated castor-oil plant leaves assessed as antifeedant rate at 0.5 mg/ml after 48 hr
Brontispa longissima [27] = experiment: Insecticidal activity against Brontispa longissima third-instar larvae fed on compound pre-treated Cocos nucifera L. leaves assessed as insect mortality at 50 ug/ml measured 12 hr after compound treatment; conditions: in Cocos nucifera
Brontispa longissima [28] = experiment: Insecticidal activity against Brontispa longissima third-instar larvae fed on compound pre-treated Cocos nucifera L. leaves assessed as insect mortality at 50 ug/ml measured 24 hr after compound treatment; conditions: in Cocos nucifera
Brontispa longissima [29] = experiment: Insecticidal activity against Brontispa longissima fifth-instar larvae fed on compound pre-treated Cocos nucifera L. leaves assessed as insect mortality at 10 ug/ml measured 48 hr after compound treatment; conditions: in Cocos nucifera
Brontispa longissima [30] = experiment: Insecticidal activity against Brontispa longissima fifth-instar larvae fed on compound pre-treated Cocos nucifera L. leaves assessed as insect mortality at 10 ug/ml measured 12 hr after compound treatment; conditions: in Cocos nucifera
Brontispa longissima [31] = experiment: Insecticidal activity against Brontispa longissima fifth-instar larvae fed on compound pre-treated Cocos nucifera L. leaves assessed as insect mortality at 10 ug/ml measured 72 hr after compound treatment; conditions: in Cocos nucifera
Brontispa longissima [32] = experiment: Insecticidal activity against Brontispa longissima fifth-instar larvae fed on compound pre-treated Cocos nucifera L. leaves assessed as insect mortality at 10 ug/ml measured 24 hr after compound treatment; conditions: in Cocos nucifera
Brontispa longissima [33] = experiment: Insecticidal activity against Brontispa longissima fifth-instar larvae fed on compound pre-treated Cocos nucifera L. leaves assessed as insect mortality at 1 ug/ml measured 12 hr after compound treatment; conditions: in Cocos nucifera
Brontispa longissima [34] = experiment: Insecticidal activity against Brontispa longissima fifth-instar larvae fed on compound pre-treated Cocos nucifera L. leaves assessed as insect mortality at 1 ug/ml measured 24 hr after compound treatment; conditions: in Cocos nucifera
Brontispa longissima [35] = experiment: Insecticidal activity against Brontispa longissima fifth-instar larvae fed on compound pre-treated Cocos nucifera L. leaves assessed as insect mortality at 1 ug/ml measured 72 hr after compound treatment; conditions: in Cocos nucifera
Brontispa longissima [36] = experiment: Insecticidal activity against Brontispa longissima fifth-instar larvae fed on compound pre-treated Cocos nucifera L. leaves assessed as insect mortality at 1 ug/ml measured 48 hr after compound treatment; conditions: in Cocos nucifera
Brontispa longissima [37] = experiment: Insecticidal activity against Brontispa longissima fifth-instar larvae fed on compound pre-treated Cocos nucifera L. leaves assessed as insect mortality at 5 ug/ml measured 48 hr after compound treatment; conditions: in Cocos nucifera
Brontispa longissima [38] = experiment: Insecticidal activity against Brontispa longissima fifth-instar larvae fed on compound pre-treated Cocos nucifera L. leaves assessed as insect mortality at 5 ug/ml measured 12 hr after compound treatment; conditions: in Cocos nucifera
Brontispa longissima [39] = experiment: Insecticidal activity against Brontispa longissima fifth-instar larvae fed on compound pre-treated Cocos nucifera L. leaves assessed as insect mortality at 5 ug/ml measured 24 hr after compound treatment; conditions: in Cocos nucifera
Brontispa longissima [40] = experiment: Insecticidal activity against Brontispa longissima fifth-instar larvae fed on compound pre-treated Cocos nucifera L. leaves assessed as insect mortality at 5 ug/ml measured 72 hr after compound treatment; conditions: in Cocos nucifera

Row | Compound | LC50 (Brontispa longissima [1]) | mortality at 50 µg/mL (Brontispa longissima [2]) | mortality at 50 µg/mL (Brontispa longissima [3]) | mortality at 50 µg/mL (Brontispa longissima [5]) | Activity (Spodoptera litura [6]) | mortality at 50 µg/mL (Brontispa longissima [7]) | mortality at 50 µg/mL (Brontispa longissima [9]) | mortality at 50 µg/mL (Brontispa longissima [10]) | mortality at 50 µg/mL (Brontispa longissima [11]) | Activity (Spodoptera litura [12]) | mortality at 50 µg/mL (Brontispa longissima [13]) | mortality at 1000 µg/mL (Spodoptera litura [16]) | mortality at 50 µg/mL (Brontispa longissima [17]) | mortality at 50 µg/mL (Brontispa longissima [18]) | mortality at 50 µg/mL (Brontispa longissima [19]) | mortality at 50 µg/mL (Brontispa longissima [20]) | mortality at 50 µg/mL (Brontispa longissima [22]) | mortality at 50 µg/mL (Brontispa longissima [23]) | LC50 (Brontispa longissima [25]) | mortality at 50 µg/mL (Brontispa longissima [27]) | also measured
1 | CC[C@H](C)C(=O)O[C@@H]1[C@H]2CC3=C4CC(=O)O[C@@H](c5ccoc5)[C@]4(C)CC[C@@H]3[C@@](C)(C2=O)[C@@H](CC(=O)OC)C1(C)C [2'S-METHYLBUTANOYLPROCERANOLIDE] | 4.03 µg/mL (≈ 7.27 µM) | 100% | 6.67% | 7.14% | 53% | 0% | 14.3% | 0% | 3.33% | 48.4% | 0% | 50% | 16.7% | 96.7% | 0% | 23.3% | 96.7% | 96.7% | 10.6 µg/mL (≈ 19.1 µM) | 3.57% | mortality at 25 µg/mL (Brontispa longissima [4]): 76.7%; mortality at 25 µg/mL (Brontispa longissima [8]): 83.3%; mortality at 500 µg/mL (Spodoptera litura [14]): 24.1%; Activity (Spodoptera litura [15]): 33.9%; mortality at 25 µg/mL (Brontispa longissima [21]): 86.7%; mortality at 25 µg/mL (Brontispa longissima [24]): 80%; Activity (Spodoptera litura [26]): 41.7%; mortality at 50 µg/mL (Brontispa longissima [28]): 7.14%
2 | C/C=C(\C)C(=O)O[C@H]1C[C@@H](OC(C)=O)[C@@]2(C(=O)OC)CO[C@H]3[C@@H](O)[C@@](C)([C@]45O[C@@]4(C)[C@@H]4C[C@H]5O[C@@H]5OC=C[C@@]54O)[C@H]4[C@]1(CO[C@]4(O)C(=O)OC)[C@@H]32 [AZADIRACHTIN A] | – | 10% | – | – | – | – | – | – | – | – | – | – | – | 10% | – | – | 10% | 3.33% | – | – | mortality at 10 µg/mL (Brontispa longissima [29]): 56.7%; mortality at 10 µg/mL (Brontispa longissima [30]): 20%; mortality at 10 µg/mL (Brontispa longissima [31]): 63.3%; mortality at 10 µg/mL (Brontispa longissima [32]): 46.7%
3 | CCC(C)C(=O)OC1[C@@H]2CC3=C4CC(=O)O[C@@H](c5ccoc5)[C@]4(C)CCC3[C@@](C)(C2=O)[C@@H](CC(=O)OC)C1(C)C (some centres not stated) [KHAYASIN] | 3.39 µg/mL (≈ 6.11 µM) | 100% | 100% | 100% | 53% | 100% | 100% | 100% | 100% | 48.4% | 100% | 50% | 100% | 100% | 100% | 100% | 100% | 96.7% | 7.28 µg/mL (≈ 13.1 µM) | 100% | mortality at 1 µg/mL (Brontispa longissima [33]): 23.3%; mortality at 10 µg/mL (Brontispa longissima [29]): 79.3%; mortality at 1 µg/mL (Brontispa longissima [34]): 20%; mortality at 500 µg/mL (Spodoptera litura [14]): 24.1%; Activity (Spodoptera litura [15]): 33.9%; mortality at 1 µg/mL (Brontispa longissima [35]): 26.7%; mortality at 10 µg/mL (Brontispa longissima [30]): 71.8%; mortality at 10 µg/mL (Brontispa longissima [31]): 86.3%; Activity (Spodoptera litura [26]): 41.7%; mortality at 10 µg/mL (Brontispa longissima [32]): 79.3%; mortality at 50 µg/mL (Brontispa longissima [28]): 100%; mortality at 1 µg/mL (Brontispa longissima [36]): 23.3%
4 | C=C(C)[C@H]1Cc2c(ccc3c2O[C@@H]2COc4cc(OC)c(OC)cc4[C@@H]2C3=O)O1 [ROTENONE] | 1.61 µg/mL (≈ 4.08 µM) | 100% | – | – | – | – | – | – | – | – | – | – | – | 86.7% | – | – | 96.7% | 86.7% | 5.32 µg/mL (≈ 13.5 µM) | – | mortality at 5 µg/mL (Brontispa longissima [37]): 73.3%; mortality at 10 µg/mL (Brontispa longissima [29]): 90%; mortality at 5 µg/mL (Brontispa longissima [38]): 60%; mortality at 10 µg/mL (Brontispa longissima [30]): 80%; mortality at 10 µg/mL (Brontispa longissima [31]): 90%; mortality at 5 µg/mL (Brontispa longissima [39]): 66.7%; mortality at 10 µg/mL (Brontispa longissima [32]): 90%; mortality at 5 µg/mL (Brontispa longissima [40]): 76.7%
5 | CC(=O)O[C@@H]1C[C@H](O)[C@@]23CO[C@@H](O)[C@]1(C)[C@@H]2C[C@@H](O)[C@]1(C)[C@@H]3C(=O)[C@H](OC(C)=O)[C@@]2(C)[C@H](c3ccoc3)C[C@H]3O[C@]321 [TOOSENDANIN] | – | – | 100% | 73.3% | 90.6% | 66.7% | 83.3% | 53.3% | 96.7% | 87.1% | 73.3% | 100% | 100% | – | 60% | 100% | – | – | – | 53.3% | mortality at 50 µg/mL (Brontispa longissima [28]): 63.3%
